biological target: LRRK2 (Homo sapiens (Human), UniProt Q5S007, G2019S); assay: In Vitro LRRK2 LabChip Assay (LRRK2 Ki); type: biochemical
Procedure: In Vitro LRRK2 LabChip Assay This assay was used to determine a compound's potency in inhibiting activity of LRRK2 by determining, Kiapp, IC50, or percent inhibition values. In a polypropylene plate, LRRK2, fluorescently-labeled peptide substrate, ATP and test compound were incubated together. Using a LabChip 3000 (Caliper Life Sciences), after the reaction the substrate was separated by capillary electrophoresis into two populations: phosphorylated and unphosphorylated. The relative amounts of each were quantitated by fluorescence intensity. LRRK2 Ki was determined according to the equation: […]))). Ki values in Table 4 and elsewhere herein are shown in μM. […] Substrate: 5[…] Non-binding plate: 384 well clear V-bottom polypropylene plates (Greiner cat #781280). ATP: 10 mM ATP (Cell Signaling cat #9804). Triton X-100: Triton X-100. Brij-35: Brij-35 (Pierce cat #20150). […] DMSO: DMSO (Sigma cat #34869-100 ML). […] Compound Plate Preparation: For serial dilutions, 34.6 μl DMSO was added to columns 3-24. For the assay controls, 37.5 μl DMSO was added to columns 1 and 2 of rows A and […]-028831 (Staurosporine) was added to columns 1 and 2, row B. […] A Precision instrument was used to perform 1:3.16 serial dilutions (“PLK_BM_serial_halflog”). ATP Preparation: ATP was diluted to 282.1 μM in Complete Kinase Buffer (final concentration was 130 μM). […] Assay Procedure: To a 50 μl polypropylene plate, 5 μl/well buffer/substrate was added by hand to Blank wells. A Biomek FX was used to start the kinase reaction (“PLK SAR 23 ATP”). […] 5 μl/well kinase/substrate in Assay Plate; The plate was incubated for 2 hours in the dark. Biomek FX was used to stop the kinase reaction (“PLK Stop”), and 10 μl/well Stop solution was added to the Assay Plate.

Sequence of LRRK2 (Q5S007 970-2527 G2019S): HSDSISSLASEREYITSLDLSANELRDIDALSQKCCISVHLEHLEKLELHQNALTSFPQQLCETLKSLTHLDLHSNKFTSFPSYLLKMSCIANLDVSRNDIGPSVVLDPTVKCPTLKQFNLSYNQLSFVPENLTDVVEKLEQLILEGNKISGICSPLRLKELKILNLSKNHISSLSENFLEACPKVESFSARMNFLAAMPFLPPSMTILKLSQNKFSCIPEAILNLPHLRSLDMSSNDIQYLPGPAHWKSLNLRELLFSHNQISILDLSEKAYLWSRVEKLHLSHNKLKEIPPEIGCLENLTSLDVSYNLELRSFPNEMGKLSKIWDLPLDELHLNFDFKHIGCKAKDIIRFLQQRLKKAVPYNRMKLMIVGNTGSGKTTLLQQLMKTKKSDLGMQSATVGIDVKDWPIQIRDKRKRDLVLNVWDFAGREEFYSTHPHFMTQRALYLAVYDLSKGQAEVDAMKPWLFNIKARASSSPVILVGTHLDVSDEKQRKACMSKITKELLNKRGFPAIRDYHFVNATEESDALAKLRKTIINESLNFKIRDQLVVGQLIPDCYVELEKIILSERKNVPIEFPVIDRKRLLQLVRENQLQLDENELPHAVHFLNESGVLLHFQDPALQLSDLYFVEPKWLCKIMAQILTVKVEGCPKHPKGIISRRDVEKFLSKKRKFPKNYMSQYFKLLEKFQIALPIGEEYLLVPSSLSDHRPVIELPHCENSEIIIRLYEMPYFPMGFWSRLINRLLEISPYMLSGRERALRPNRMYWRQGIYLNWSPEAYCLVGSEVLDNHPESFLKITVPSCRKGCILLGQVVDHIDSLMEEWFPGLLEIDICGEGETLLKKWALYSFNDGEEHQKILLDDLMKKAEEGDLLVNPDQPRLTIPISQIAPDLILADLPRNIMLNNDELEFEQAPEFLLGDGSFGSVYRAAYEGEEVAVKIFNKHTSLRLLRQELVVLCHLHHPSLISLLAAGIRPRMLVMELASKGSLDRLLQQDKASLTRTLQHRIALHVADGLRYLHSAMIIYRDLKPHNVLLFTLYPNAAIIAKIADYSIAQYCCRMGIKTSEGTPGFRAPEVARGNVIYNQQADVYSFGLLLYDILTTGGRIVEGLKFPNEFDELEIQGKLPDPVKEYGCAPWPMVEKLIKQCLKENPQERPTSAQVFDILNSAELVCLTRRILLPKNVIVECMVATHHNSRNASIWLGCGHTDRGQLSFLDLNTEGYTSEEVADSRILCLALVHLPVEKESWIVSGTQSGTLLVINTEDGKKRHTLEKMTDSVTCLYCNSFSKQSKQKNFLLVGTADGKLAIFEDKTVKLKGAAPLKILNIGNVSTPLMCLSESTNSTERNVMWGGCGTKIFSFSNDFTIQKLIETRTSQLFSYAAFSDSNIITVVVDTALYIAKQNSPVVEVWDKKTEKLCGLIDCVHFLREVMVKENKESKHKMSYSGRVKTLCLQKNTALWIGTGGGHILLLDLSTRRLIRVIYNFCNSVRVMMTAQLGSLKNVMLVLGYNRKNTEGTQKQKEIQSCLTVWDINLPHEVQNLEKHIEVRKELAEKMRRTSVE

| SMILES | Ki [nM] |
| --- | --- |
| CNc1nc(Nc2cc(OC)c(-c3nc(C)no3)cc2Cl)ncc1C(F)(F)F [Compound 31, N^2-(2-chloro-5-methoxy-4-(3-methyl-1,2,4-oxadiazol-5-yl)phenyl)-N^4-methyl-5-(trifluoromethyl) pyrimidine-2,4-diamine] | 41 |
| CNc1nc(Nc2cc(OC)c(-c3cnn(C)c3)cc2Cl)ncc1C(F)(F)F [Compound 32, N^2-(2-chloro-5-methoxy-4-(1-methyl-1H-pyrazol-4-yl)phenyl)-N^4-methyl-5-(trifluoromethyl) pyrimidine-2,4-diamine] | 11 |
| CNc1nc(Nc2ccc(-c3nnc(C)o3)cc2Cl)ncc1Cl [Compound 33, 5-chloro-N^2-(2-chloro-4-(5-methyl-1,3,4-oxadiazol-2-yl)phenyl)-N^4-methylpyrimidine-2,4-diamine] | 30 |
| CNc1nc(Nc2ccc(-c3nc(C)no3)cc2Cl)ncc1Cl [Compound 34, 5-chloro-N^2-(2-chloro-4-(3-methyl-1,2,4-oxadiazol-5-yl)phenyl)-N^4-methylpyrimidine-2,4-diamine] | 80 |
| CNc1nc(Nc2cc(OC)c(-c3nc(C)no3)cc2Cl)ncc1Cl [Compound 36, 5-chloro-N^2-(2-chloro-5-methoxy-4-(3-methyl-1,2,4-oxadiazol-5-yl)phenyl)-N^4-methylpyrimidine-2,4-diamine] | 44 |
| CNc1nc(Nc2cc(OC)c(-c3nnc(C)o3)cc2Cl)ncc1Cl [Compound 37, 5-chloro-N^2-(2-chloro-5-methoxy-4-(5-methyl-1,3,4-oxadiazol-2-yl)phenyl)-N^4-methylpyrimidine-2,4-diamine] | 12 |
| CNc1nc(Nc2cc(F)c(-c3cnn(C4COC4)c3)cc2OC)ncc1C(F)(F)F [Compound 44, N2-(5-fluoro-2-methoxy-4-(1-(oxetan-3-yl)-1H-pyrazol-4-yl)phenyl)-N4-methyl-5-(trifluoromethyl) pyrimidine-2,4-diamine] | 10 |
| CNc1nc(Nc2ccc(-n3nc(C)cc3COC)cc2OC)ncc1C(F)(F)F [Compound 48, N2-(2-methoxy-4-(5-(methoxymethyl)-3-methyl-1H-pyrazol-1-yl)phenyl)-N4-methyl-5-(trifluoromethyl) pyrimidine-2,4-diamine] | 10 |

Now those with a lower Ki, led by results:

| Ki [nM] | SMILES |
| --- | --- |
| 2 | CNc1nc(Nc2ccc(-c3cnn(C)c3)cc2OC)ncc1Cl [Compound 35, 5-chloro-N^2-(2-methoxy-4-(1-methyl-1H-pyrazol-4-yl)phenyl)-N^4-methylpyrimidine-2,4-diamine] |
| 2 | CNc1nc(Nc2ccc(-c3cn(C)nc3C)cc2OC)ncc1C(F)(F)F [Compound 38, N2-(4-(1,3-dimethyl-1H-pyrazol-4-yl)-2-methoxyphenyl)-N4-methyl-5-(trifluoromethyl) pyrimidine-2,4-diamine] |
| 3 | CNc1nc(Nc2ccc(-c3cnn(C)c3C)cc2OC)ncc1C(F)(F)F [Compound 39, N2-(4-(1,5-dimethyl-1H-pyrazol-4-yl)-2-methoxyphenyl)-N4-methyl-5-(trifluoromethyl) pyrimidine-2,4-diamine] |
| 1 | CNc1nc(Nc2cc(F)c(-c3cnn(C)c3C(=O)N(C)C)cc2OC)ncc1C(F)(F)F [Compound 41, 4-(2-fluoro-5-methoxy-4-(4-(methylamino)-5-(trifluoromethyl)pyrimidin-2-ylamino)phenyl)-N,N,1-trimethyl-1H-pyrazole-5-carboxamide] |
| 3 | CNc1nc(Nc2cc(F)c(-n3nnnc3C)cc2OC)ncc1C(F)(F)F [Compound 42, N2-(5-fluoro-2-methoxy-4-(5-methyl-1H-tetrazol-1-yl)phenyl)-N4-methyl-5-(trifluoromethyl) pyrimidine-2,4-diamine] |
| 2 | CNc1nc(Nc2cc(F)c(-c3cnnn3C)cc2OC)ncc1C(F)(F)F [Compound 43, N2-(5-fluoro-2-methoxy-4-(1-methyl-1H-1,2,3-triazol-5-yl)phenyl)-N4-methyl-5-(trifluoromethyl) pyrimidine-2,4-diamine] |
| 1 | CNc1nc(Nc2cc(C)c(-n3nnnc3C)cc2OC)ncc1C(F)(F)F [Compound 45, N2-(2-methoxy-5-methyl-4-(5-methyl-1H-tetrazol-1-yl)phenyl)-N4-methyl-5-(trifluoromethyl) pyrimidine-2,4-diamine] |
| 1 | CNc1nc(Nc2cc(C)c(-n3nnnc3COC)cc2OC)ncc1C(F)(F)F [Compound 46, N2-(2-methoxy-4-(5-(methoxymethyl)-1H-tetrazol-1-yl)-5-methylphenyl)-N4-methyl-5-(trifluuromethyl) pyrimidine-2,4-diamine] |
| 5 | CNc1nc(Nc2cc(F)c(-n3nc(C)cc3COC)cc2OC)ncc1C(F)(F)F [Compound 47, N2-(5-fluoro-2-methoxy-4-(5-(methoxymethyl)-3-methyl-1H-pyrazol-1-yl)phenyl)-N4-methyl-5-(trifluoromethyl) pyrimidine-2,4-diamine] |
| 4 | CNc1nc(Nc2cc(F)c(-n3nnnc3COC)cc2OC)ncc1C(F)(F)F [Compound 49, N2-(5-fluoro-2-methoxy-4-(5-(methoxymethyl)-1H-tetrazol-1-yl)phenyl)-N4-methyl-5-(trifluoromethyl) pyrimidine-2,4-diamine] |

Source: patent publication US8791130B2, “Aminopyrimidine derivatives as LRRK2 modulators” (Genentech, Inc., priority 2011, dated 2014)
